The source of these data is patent US12091409B2, “Ether linked triazoles as NRF2 activators” (ASTEX THERAPEUTICS LIMITED, priority 2016, dated 2024).

Bounds are passed on as bounds.

The subject of this assay is NQO1 specific enzyme activity in BEAS-2B cells (marker for NRF2 activation). The experiment in a line: BEAS-2B NQO1 MTT Assay. The format is cell-based. Conditions: Homo sapiens, BEAS-2B, 48 h, NQO1 specific activity induction, 48 hours with compound. The text has this:
NAD(P)H:quinone oxidoreductase 1 (NQO1), also called DT diaphorase, is a homodimeric FAD-containing enzyme that catalyzes obligatory NAD(P)H-dependent two-electron reductions of quinones and protects cells against the toxic and neoplastic effects of free radicals and reactive oxygen species arising from one-electron reductions. The transcription of NQO1 is finely regulated by NRF2, and thus NQO1 activity is a good marker for NRF2 activation. On day one, frozen BEAS-2B cells (ATCC) were thawed in a water bath, counted, and re-suspended at a concentration of 250,000 cells/mL. Fifty microliters of cells were plated in 384 well black clear-bottomed plates. Plates were incubated at 37° C., 5% CO2 overnight. On day two, plates were centrifuged and 50 nL of compound or controls were added to the cells. Plates were then incubated at 37° C., 5% CO2 for 48 hours. On day four, medium was aspirated from the plate and crude cell lysates were made by adding 13 uL of 1× Cell Signaling Technologies lysis buffer with 1 Complete, Mini, EDTA-free Protease Inhibitor Tablet (Roche) for each 10 mL of lysis buffer. After lysis plates were incubated for 20 minutes at room temperature. Two microliters of lysate were removed for use in Cell Titer Glo assay (Promega) and MTT cocktail was prepared (Prochaska et. al. 1998) for measurement of NQO1 activity. Fifty microliters of MTT cocktail was added to each well, plate was centrifuged, and analyzed on an Envision plate reader (Perkin Elmer) using Absorbance 570 nm label for 30 minutes. Product formation was measured kinetically and the pEC50 of NQO1 specific activity induction was calculated by plotting the change in absorbance (Delta OD/min) versus the log of compound concentration followed by 3-parameter fitting.
pEC50 is the negative log of the EC50.
EC50s<1 nM (+++++), EC50s 1 nM-10 nM (++++), EC50s 10 nM-100 nM (+++), EC50s 100 nM-1 uM (++), EC50s 1 uM-10 uM (+); EC50s>10 uM (−), or were not determined (ND).
With `CC[C@H]1Cc2ccccc2S(=O)(=O)N(Cc2cc([C@@H](OCc3cn(CC)nn3)C(C)(C)C(=O)O)ccc2C)C1` [Example 85, (3R)-((1-ethyl-1H-1,2,3-triazol-4-yl)methoxy)-2,2-dimethyl-3-(4-methyl-3-(((S)-4-ethyl-1,1-dioxido-4,5-dihydrobenzo[f][1,2]thiazepin-2(3H)-yl)methyl)phenyl)propanoic acid], the EC50 was less than 1 nM.

For `CC[C@@H]1Cc2ccccc2S(=O)(=O)N(Cc2cc([C@H](OCc3cn(CC)nn3)C(C)(C)C(=O)O)ccc2C)C1` [Example 69, (3S)-((1-ethyl-1H-1,2,3-triazol-4-yl)methoxy)-2,2-dimethyl-3-(4-methyl-3-(((R)-4-ethyl-1,1-dioxido-4,5-dihydrobenzo[f][1,2]thiazepin-2(3H)-yl)methyl)phenyl)propanoic acid], the concentration for a half-maximal effect (EC50) fell in the range of 10 to 100 nM.

As to `CC[C@H]1Cc2ccccc2S(=O)(=O)N(Cc2cc([C@@H](OCc3cn(C)nn3)C(C)(C)C(=O)O)ccc2C)C1` [Example 119, (R)-3-(3-(((S)-4-Ethyl-1,1-dioxido-4,5-dihydrobenzo[f][1,2]thiazepin-2(3H)-yl)methyl)-4-methylphenyl)-2,2-dimethyl-3-((1-methyl-1H-1,2,3-triazol-4-yl)methoxy)propanoic acid], the EC50 is less than 1 nM.

`COCCn1cc(CO[C@H](c2ccc(C)c(CN(Cc3ccccn3)S(=O)(=O)c3cccc(C(=O)O)c3)c2)C(C)(C)C(=O)O)nn1` [Example 93, (R)-3-(N-(5-(2-carboxy-1-((1-(2-methoxyethyl)-1H-1,2,3-triazol-4-yl)methoxy)-2-methylpropyl)-2-methylbenzyl)-N-(pyridin-2-ylmethyl)sulfamoyl)benzoic acid]: the EC50 is 100 to 1000 nM.

With `Cc1ccc([C@@H](OCc2cn(Cc3ccc(Cn4cc(CO[C@H](c5ccc(C)c(CN6C[C@@H](C)Oc7ccccc7S6(=O)=O)c5)C(C)(C)C(=O)O)nn4)cc3)nn2)C(C)(C)C(=O)O)cc1CN1C[C@@H](C)Oc2ccccc2S1(=O)=O` (relative stereo) [Example 49, (R,rel-(3R,3′R))-3,3′-(((1,1′-(1,4-phenylenebis(methylene))bis(1H-1,2,3-triazole-4,1-diyl))bis(methylene))bis(oxy))bis(2,2-dimethyl-3-(4-methyl-3-(((R)-4-methyl-1,1-dioxido-3,4-dihydro-2H-benzo[b][1,4,5]oxathiazepin-2-yl)methyl)phenyl)propanoic acid)], the EC50 was in the range of 100 to 1000 nM.

With `CCn1cc(COC(c2ccc(C)c(CN(CC3CCCCCC3)C(C)=O)c2)C(C)(C)C(=O)O)nn1` (stereo not shown) [Example 54, 3-(3-((N-(cycloheptylmethyl)acetamido)methyl)-4-methylphenyl)-3-((1-ethyl-1H-1,2,3-triazol-4-yl)methoxy)-2,2-dimethylpropanoic acid], the EC50 fell in the range of 100 to 1000 nM.

For the compound `Cc1ccc(C(OCc2cn(Cc3cccc(Cn4cc(C(=O)O)nn4)c3)nn2)C(C)(C)C(=O)O)cc1CN1C[C@@H](C)Oc2ccccc2S1(=O)=O` (stereo partly drawn) [Example 43, 1-(3-((4-((2-Carboxy-2-methyl-1-(4-methyl-3-(((R)-4-methyl-1,1-dioxido-3,4-dihydro-2H-[b][1,4,5]oxathiazepin-2-yl)methyl)phenyl)propoxy)methyl)-1H-1,2,3-triazol-1-yl)methyl)benzyl)-1H-1,2,3-triazole-4-carboxylic acid], the EC50 was in the range of 100 to 1000 nM.

Take `COC(=O)C(C)(C)C(OCc1cn(Cc2cccc(-c3cccc(C(=O)O)n3)c2)nn1)c1ccc(C)c(CN2C[C@@H](C)Oc3ccccc3S2(=O)=O)c1` (stereo partly drawn) [Example 58, 6-(3-((4-((3-Methoxy-2,2-dimethyl-1-(4-methyl-3-(((R)-4-methyl-1,1-dioxido-3,4-dihydro-2H-benzo[b][1,4,5]oxathiazepin-2-yl)methyl)phenyl)-3-oxopropoxy)methyl)-1H-1,2,3-triazol-1-yl)methyl)-phenyl)picolinic acid]: the EC50 is 100 to 1000 nM.

For `CCn1cc(COC(c2ccc(C)c(CN3C[C@@H](C)Oc4ccccc4S3(=O)=O)c2)C(C)(C)C(=O)O)nn1` (stereo partly drawn) [Example 11, 3-((1-Ethyl-1H-1,2,3-triazol-4-yl)methoxy)-2,2-dimethyl-3-(4-methyl-3-(((R)-4-methyl-1,1-dioxido-3,4-dihydro-2H-benzo[b][1,4,5]oxathiazepin-2-yl)methyl)phenyl)propanoic acid], the EC50 fell in the range of 1 to 10 nM.

As to `Cc1ccc([C@@H](OCc2cn(CCOCCN=[N+]=[N-])nn2)C(C)(C)C(=O)O)cc1CN1C[C@@H](C)Oc2ccccc2S1(=O)=O` (single isomer, unassigned) [Example 15], the EC50 fell in the range of 10 to 100 nM.

`CCn1cc(CO[C@H](c2ccc(C)c(CN(Cc3cccc(C(=O)O)c3)S(=O)(=O)c3ccccc3)c2)C(C)(C)C(=O)O)nn1` [Example 91, (R)-3-((N-(5-(2-carboxy-1-((1-ethyl-1H-1,2,3-triazol-4-yl)methoxy)-2-methylpropyl)-2-methylbenzyl)phenylsulfonamido)methyl)benzoic acid]: the EC50 lay within 1000 to 10000 nM.

For the compound `CCn1cc(CO[C@H](c2ccc(C)c(CN3C[C@@H](C)Cc4ncccc4S3(=O)=O)c2)C(C)(C)C(=O)O)nn1` [Example 62, (3R)-((1-ethyl-1H-1,2,3-triazol-4-yl)methoxy)-2,2-dimethyl-3-(4-methyl-3-(((S)-4-methyl-1,1-dioxido-4,5-dihydropyrido[2,3-f][1,2]thiazepin-2(3H)-yl)methyl)phenyl)propanoic acid], the EC50 was less than 1 nM.

For `Cc1cc(Cn2cc(CO)nn2)cc(Cn2cc(COC(c3ccc(C)c(CN4C[C@@H](C)Oc5ccccc5S4(=O)=O)c3)C(C)(C)C(=O)O)nn2)c1` (stereo partly drawn) [Example 29, 3-((1-(3-((4-(Hydroxy-methyl)-1H-1,2,3-triazol-1-yl)methyl)-5-methylbenzyl)-1H-1,2,3-triazol-4-yl)methoxy)-2,2-dimethyl-3-(4-methyl-3-(((R)-4-methyl-1,1-dioxido-3,4-dihydro-2H-benzo[b][1,4,5]oxathiazepin-2-yl)methyl)phenyl)propanoic acid], the concentration for a half-maximal effect (EC50) lay in the range of 10 to 100 nM.

Take `Cc1ccc(C(OCc2cn(Cc3ccc(CN=[N+]=[N-])cc3)nn2)C(C)(C)C(=O)O)cc1CN1C[C@@H](C)Oc2ccccc2S1(=O)=O` (stereo partly drawn) [Example 19, 3-((1-(4-(Azidomethyl)benzyl)-1H-1,2,3-triazol-4-yl)methoxy)-2,2-dimethyl-3-(4-methyl-3-(((R)-4-methyl-1,1-dioxido-3,4-dihydro-2H-benzo[b][1,4,5]oxathiazepin-2-yl)methyl)phenyl)propanoic acid]: the EC50 is 1 to 10 nM.

With `CCn1cc(CO[C@@H](c2ccc(C)c(CN3C[C@@H](C)Cc4ncccc4S3(=O)=O)c2)C(C)(C)C(=O)O)nn1` [Example 72, (3S)-((1-ethyl-1H-1,2,3-triazol-4-yl)methoxy)-2,2-dimethyl-3-(4-methyl-3-(((S)-4-methyl-1,1-dioxido-4,5-dihydropyrido[2,3-f][1,2]thiazepin-2(3H)-yl)methyl)phenyl)propanoic acid], the half-maximal effective concentration (EC50) lay within 10 to 100 nM.

As for `CCn1cc(CO[C@@H](c2ccc(C)c(CN3C[C@H](C)Cc4ccncc4S3(=O)=O)c2)C(C)(C)C(=O)O)nn1` [Example 63, (3S)-((1-ethyl-1H-1,2,3-triazol-4-yl)methoxy)-2,2-dimethyl-3-(4-methyl-3-(((R)-4-methyl-1,1-dioxido-4,5-dihydropyrido[4,3-f][1,2]thiazepin-2(3H)-yl)methyl)phenyl)propanoic acid], the EC50 lay within 1000 to 10000 nM.
